Article PMC11046913, “Activation of retinoic acid-related orphan receptor γ(t) by parabens and benzophenone UV-filters” (Toxicology, 2022)
Like-named read-outs stand apart in the source and are kept apart here.

Key:
[1] = cited from earlier work
[2] = system: IL-17A mRNA in EL4 T-cells over expressing human RORγt; assay: IL-17A mRNA expression (qRT-PCR) in EL4 cells overexpressing human RORγt; type: cell-based, murine; conditions: 5 h, PMA/ionomycin-stimulated
Procedure: (§1) EL4 cells were transfected with plasmid encoding the human variant of RORγt by electroporation and seeded into 12-well plates (500,000 cells and 1.6 μg plasmid in 2 mL cultivation medium per well). Transfection was performed using the NeonTM transfection system (Invitrogen, Carlsbad, CA, USA) as follows: 1.8 × 10^6 cells and 6 μg plasmid in 100 μL buffer R were exposed to one pulse (1080 V, 50 ms) utilizing a 100 μL gold tip. After incubation for 16 h, the cells were treated for 5 h with the indicated test compounds as well as PMA and ionomycin at a total concentration of 0.253 nM and 31.3 nM, respectively. Subsequently, cells were centrifuged at 200 g for 3 min and total RNA was isolated from the pellet with the RNeasy Mini Kit according to the manufacturer’s protocol (Qiagen, Venlo, Netherlands). Contamination with genomic DNA was prevented by on-column DNA digestion using DNase I (RNase-free, Qiagen). RNA (1 μg) was reverse transcribed to complementary DNA (cDNA) utilizing the Takara PrimeScript RT Reagent Kit, according to the manufacturer’s protocol (Takara Bio Inc., Kusatsu, Japan). Finally, quantitative polymerase chain reaction (qPCR) was performed using Kapa SYBER® Fast qPCR Master Mix (KAPA Biosystems, Wilmington, MA, USA) as described earlier ([Inderbinen et al., 2020]). The following primers were used: peptidylprolyl isomerase A (PPIA): forward 5’-[…]-3’, reverse 5’-[…]-3’; IL-17A: forward 5’-[…] CCAA-3’, reverse 5’-[…]-3’; IL-22: forward 5’-[…]-3’, reverse 5’-[…]-3’. Primer quality was verified by analysis of melting curves and inspection of the PCR product on an agarose gel (single band at the expected size of the amplified sequence). Resulting CT values were normalized to values of the endogenous control gene PPIA and compared to control according to the 2^−ΔΔCT method ([Schmittgen and Livak, 2008]).

[3] = system: IL-22 mRNA in EL4 T-cells over expressing human RORγt; assay: IL-22 mRNA expression (qRT-PCR) in EL4 cells overexpressing human RORγt; type: cell-based, murine; conditions: 5 h, PMA/ionomycin-stimulated
Procedure: as §1

RORγ [4] = target: T1, RORγ (Mus musculus, UniProt P51450); assay: cell-based; type: cell-based; conditions: for activation at 1 µM: read-out: % increase in RORγ activity (mean ± SD), individual agonist at 1 μM; for activation at 2.5 µM: read-out: % increase in RORγ activity (mean ± SD), individual agonist at 2.5 μM; for RORγ agonistic activity (in words): screening at 10 μM; for fold induction at 10 µM: read-out: RORγ-dependent transactivation compared to the DMSO vehicle control
T1 sequence (P51450 1-516): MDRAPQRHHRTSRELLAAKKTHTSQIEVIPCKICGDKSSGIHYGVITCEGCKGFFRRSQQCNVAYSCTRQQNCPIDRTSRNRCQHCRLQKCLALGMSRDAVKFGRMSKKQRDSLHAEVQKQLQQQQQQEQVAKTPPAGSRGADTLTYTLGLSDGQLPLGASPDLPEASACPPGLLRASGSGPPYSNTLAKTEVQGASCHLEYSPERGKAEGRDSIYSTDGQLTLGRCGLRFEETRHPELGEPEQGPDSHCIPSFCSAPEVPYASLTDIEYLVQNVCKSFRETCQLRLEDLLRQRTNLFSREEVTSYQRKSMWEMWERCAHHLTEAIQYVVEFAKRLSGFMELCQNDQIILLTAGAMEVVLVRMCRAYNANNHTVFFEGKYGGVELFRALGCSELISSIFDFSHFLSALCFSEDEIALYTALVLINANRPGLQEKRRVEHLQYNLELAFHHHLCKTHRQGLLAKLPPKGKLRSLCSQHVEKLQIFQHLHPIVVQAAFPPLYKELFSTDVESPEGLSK
Procedure: Both cell lines were cultured under standard conditions (37 °C, 5% CO2).

RORγ [5] = target: T1, RORγ; conditions: in presence of 1.25 μM SR2211, test compound at different concentrations
Procedure: The CHO RORγ Tet-on cell line used in this study is a well-established reporter gene system to assess RORγ agonists and antagonists. […] CHO RORγ Tet-on cells were seeded in 96-well plates at a density of 2000 cells/100 μL culture medium, followed by incubation overnight. Subsequently, the medium was renewed, and the respective test compound dissolved in dimethylsulfoxide (DMSO) was added to the wells using a HP D300 Digital Liquid Dispenser with T8 dispense heads (HP Inc., Palo Alto, CA, USA). […] Two hours later, RORγ expression was induced by adding doxycycline at 1 μM final concentration. All samples were adjusted to contain the same volume and concentration of DMSO. After 16 h of incubation, cells were washed with PBS, lysed with 20 μL Tropix lysis solution (Applied Biosystems, Foster City, CA, USA) containing 1 mM dithiothreitol and frozen at − 80 °C for at least 20 min. […] Measured values were normalized to values from control cells treated with DMSO vehicle control only and induced with doxycycline.
Cells were simultaneously exposed to SR2211 and a given test compound at different concentrations or vehicle control.

[6] = parameters: method as in Benson et al., 2005; Fernandez et al., 2002; conditions: human; ref Benson et al., 2005; Fernandez et al., 2002; cited from earlier work
[7] = parameters: method as in CIR, 2008; conditions: relatively long alkyl side chain; ref CIR, 2008; cited from earlier work
estrogenic activity = conditions: cited from earlier work
[8] = only at high micromolar concentrations, ref Charles and Darbre, 2009

Row | SMILES | activation at 1 µM (RORγ [4]) | RORγ agonistic activity (in words) (RORγ [4]) | IL-17A transcription ([2]; 10 μM, vs vehicle control) | IL-22 transcription ([3]; 10 μM, vs vehicle control) | Reversal of the SR2211-mediated inhibition of RORγ transactivation (RORγ [5]) | fold induction at 10 µM (RORγ [4]) | other results
1 | COc1ccc(C(=O)CC(=O)c2ccc(C(C)(C)C)cc2)cc1 [avobenzone] | – | – | – | – | – | – | skin penetration ([1]; ref Simeoni et al., 2004, Weigmann et al., 2001): limited skin penetration
2 | CCc1ccc(N(CC(C)C)S(=O)(=O)c2ccc(OCC3CCOCC3)c(CO)c2)cc1 [GSK2981278, reference compound] | – | – | – | – | – | – | IL-17A transcription ([2]; 1 μM): efficient modulation; IL-22 transcription ([3]; 1 μM): efficient modulation
3 | COc1ccc(C(=O)c2ccc(C)cc2)c(O)c1 [Benzophenone-10, benzophenone-10] | 15 ± 5% | agonistic activity | elevated expression | tended to increase | significant increase | – | RORγ-dependent transactivation compared to the DMSO vehicle control (RORγ [4]; first screening, 10 μM): more than 1.5 fold; activation at 2.5 µM (RORγ [4]): 63 ± 4%
4 | O=C(Oc1ccccc1)c1ccc(O)cc1 [Phenylparaben, phenylparaben] | 5 ± 2% | – | – | – | – | > 1.5 | –
5 | COc1ccc(C(=O)c2ccccc2)c(O)c1 [benzophenone-3] | – | agonistic activity | – | – | – | – | concentration in breast milk [6]: 779.9 ng/g milk; concentration in serum [6]: 304 ng/mL; concentration in urine [6]: 300 ng/mL; skin penetration ([1]; human skin, ref Benson et al., 2005, Fernandez et al., 2002): penetrate the human skin efficiently
6 | CCCCOC(=O)c1ccc(O)cc1 [Butylparaben, butylparaben] | 5 ± 4% | – | – | – | – | > 1.5 | –
7 | CCCCCCOC(=O)c1ccc(O)cc1 [Hexylparaben, hexylparaben] | – | – | elevated expression | significantly increased transcription | significant increase | > 1.5 | activation at 2.5 µM (RORγ [4]): 83 ± 8%; solubility [7]: reduced solubility
8 | CCCCCCCOC(=O)c1ccc(O)cc1 [Heptylparaben, heptylparaben] | 5 ± 5% | – | – | – | – | > 1.5 | –
9 | O=C(OCc1ccccc1)c1ccccc1 [Benzylbenzoate] | 16 ± 12% | significant agonistic activity | did not significantly enhance | did not significantly enhance | restore the suppressed RORγ activity in a concentration-dependent manner | – | estrogenic activity (estrogenic activity; [8]): Estrogenic activity
10 | O=C(c1ccc(O)cc1O)c1ccc(O)cc1O [benzophenone-2] | – | agonistic activity | – | – | – | – | –
11 | O=C(c1ccc(O)cc1)c1ccc(O)cc1 [4,4’-dihydroxybenzophenone] | – | agonistic activity | – | – | – | – | –
12 | O=C(OCc1ccccc1)c1ccc(O)cc1 [Benzylparaben, benzylparaben] | 13 ± 4% | – | a trend was detected | tended to increase | significant increase | > 1.5 | activation at 2.5 µM (RORγ [4]): 45 ± 2%
13 | O=C(c1ccccc1)c1ccc(O)cc1O [benzophenone-1] | – | – | – | – | – | – | RORγ agonistic effect (in words, discussion) (RORγ [4]; micromolar concentrations): only weak RORγ agonistic effect
14 | COc1ccc(C(=O)c2ccc(OC)cc2O)c(O)c1 [Benzophenone-6, benzophenone-6] | -1 ± 5% | agonistic activity | – | – | – | > 1.5 | –
15 | Cc1ccc(OC(=O)c2ccccc2)cc1 [4-Methylphenylbenzoate] | 6 ± 9% | significant agonistic activity | did not significantly enhance | did not significantly enhance | failed to do so | – | –
16 | Cc1ccc(Sc2ccc(C(=O)c3ccccc3)cc2)cc1 [4-(4-methylphenylthio)benzophenone] | – | agonistic activity | – | – | – | – | –
17 | O=C(c1ccc(O)cc1)c1ccc(O)cc1O [2,4,4’-trihydroxybenzophenone] | – | agonistic activity | – | – | – | – | estrogenic activity (estrogenic activity; ref Suzuki et al., 2005): weak estrogenic activity
18 | O=C(OCc1ccccc1)c1ccccc1O [Benzylsalicylate] | 18 ± 3% | significant agonistic activity | did not significantly enhance | did not significantly enhance | restore the suppressed RORγ activity in a concentration-dependent manner | – | estrogenic activity (estrogenic activity; [8]): Estrogenic activity
19 | O=c1c(-c2ccc(O)cc2)coc2cc(O)cc(O)c12 [genistein, reference compound] | – | – | efficient modulation | significantly increased transcription | – | – | –
20 | O=C(Nc1ccc(C(O)(C(F)(F)F)C(F)(F)F)cc1)c1ccccc1Cl [SR0987, reference compound] | – | – | efficient modulation | significantly increased transcription | – | – | –
